System: tail tip fibroblasts (TTFs), MRTF-A KO and WT
Assay: SMA expression in tail tip fibroblasts from MRTF-A KO and WT mice
Type: cell-based, mouse
Conditions: TGF-β1 48 hrs
Procedure: Mouse NIH/3T3 and human BR5 fibroblasts were grown as in DMEM supplemented with 10% BCS or FBS at 37° C. in a 5% CO2 incubator as previously described (Rhee et al., 2007). Primary mouse tail tip fibroblasts (TTFs) were isolated from 6- to 8-wk-old myocardin-related transcription factor (MRTF)-A−/− or wild-type littermates and cultured in DMEM supplemented with 10% FBS, nonessential amino acids, L-glutamine, and sodium pyruvate as described previously (Song et al., 2012). Once TTFs became confluent, cells were frozen in 10% DMSO containing growth media for future use before passage 3.
NIH/3T3 cells were transfected with 10 ng empty flag or flag epitope-tagged MRTF-A vector along with 100 ng smooth muscle a-actin (SMA), atrial natriuretic factor (ANF), SM22, or skeletal actin (SKA) luciferase reporter and 20 ng of β-galactosidase (β-gal) expression construct using Fugene6 (Roche). Plasmid DNA content was kept constant using empty pcDNA3.1-flag. BR5, NIH/3T3, or TTF cells were infected with adenovirus directing the expression of flag-MRTF-A, HA-MRTF-A, or β-gal as control at the multiplicity of infection (MOI) noted in the text. For experiments using chemical compounds or growth factors, cells were cultured in serum-free media (SF) for 24 h before treatment, followed by an additional 24- to 48-hr incubation in SF media treated with TGF-β1 (10 ng/mL, R&D Systems) solubilized in 4 mM HCl/1% BSA/PBS or isoxazole (20 μM) solubilized inDMSO.
Cells were treated with the indicated factor for 24 h before fixation with methanol at −20° C. for 10 min. Indirect immunofluorescence was performed by incubating with the following primary antibodies at 4° C. overnight: mouse monoclonal Cy3-conjugated anti-SMA antibody (Sigma, clone 1A4, 1:200) and rabbit monoclonal anti-HA antibody (Cell Signaling, 1:300). A secondary goat Alexa Fluor 488-conjugated anti-rabbit IgG antibody (Invitrogen, 1:200) was used to visualize HA by incubation at RT for 1 hr. All images were captured using an Olympus IX81 confocal microscope. […]

Substance: TGF-β1: growth factor (R&D Systems) used at 10 ng/mL to stimulate fibroblast differentiation
- expression of genes encoding SMC contractile proteins (SMA and SM22), qPCR and Western blot (MRTF-A-deficient TTFs): blunted
- SMA-positive stress fibers (MRTF-A-deficient fibroblasts): did not display an enrichment
- morphology and SMA-positive stress fibers (WT fibroblasts): adopting an elongated morphology and producing SMA-positive stress fibers

Source: patent US9937156B2, “Modulation of MRTF-A activity in pathologic fibrosis and wound healing” (The Board of Regents of the University of Texas System, priority 2013, dated 2018)
